Test results reported in US11472831B2, “Isotopically labeled bile acid derivatives” (Intercept Pharmaceuticals, Inc., priority 2017, dated 2022).
Blank lines part the entries; values can stand above or below the molecule they belong to.

Columns and labels:
[1] = statement, no data shown; cited from earlier work
[2] = Clinical study Part 2, Regimen C: plasma PK and metabolite profile after 25 mg oral dose of [14C]-OCA; format: in vivo, human; details: for AUC0-t / Cmax / tmax: plasma; for AUC0-t / Cmax: mean (SD); for circulating OCA metabolites other than glyco-OCA and tauro-OCA: metabolite profiling of radioactivity, mass spectrometry, authentic standards
Text: Part 2 also evaluated the extent of distribution of total radioactivity into blood cells, and identified metabolites accounting for more than 10% of circulating total radioactivity. The concentrations of total radioactivity and total OCA in plasma over time are shown in FIG. 16 (Note: Total OCA calculated as sum of OCA, glyco-OCA, and tauro-OCA concentrations at each time point, glyco-OCA, and tauro-OCA concentrations at each time point expressed as mass equivalents of OCA) and FIG. 17 (Note: Total OCA calculated as sum of OCA, glyco-OCA, and tauro-OCA concentrations at each time point, glyco-OCA, and tauro-OCA concentrations at each time point expressed as mass equivalents of OCA. Units for total radioactivity are mass equivalent to OCA (i.e. ng-eq OCA/mL)). […] Two additional OCA metabolites were identified: OCA-3 glucuronide and OCA-24 glucuronide, based on the metabolite profiling of radioactivity, mass spectrometry, and authentic standards for the glucuronide metabolites. […] Following Cmax, OCA concentration declined rapidly within the first 4 hours. The maximum exposure of total OCA, including the conjugates, occurred after meals, consistent with gallbladder release and enterohepatic recirculation, leading to exposure levels being observed over the approximately 4-week sampling period.

[3] = Clinical study Part 1, Regimen A: oral plasma PK and absolute bioavailability of 25 mg OCA tablet; format: in vivo, human
Protocol: The objectives of this study were to determine the absolute bioavailability of OCA, and evaluate the absorption, distribution, metabolism, and excretion of OCA in healthy male subjects. In addition, the oral pharmacokinetics (PK) of OCA and carbon-14 ([^14C]-OCA, and intravenous (IV) PK of [^14C]-OCA were evaluated.
The PK objectives of Part 1 were to determine the absolute bioavailability of OCA, to define the intravenous (IV) PK of a microtracer dose of [14C] OCA, and to evaluate the oral PK of OCA. In Part 1, subjects were administered the oral dose (Regimen A: 25 mg OCA tablet), followed by the IV microtracer dose (Regimen B: 100 μg [14C]-OCA) 1 hour 45 minutes after the oral dose administration. The 15 minute IV infusion ended at the estimated tmax for the oral dose (2 hours).
To evaluate the oral PK, plasma concentrations of OCA and its conjugates were measured following an oral dose (Regimen A: 25 mg OCA). OCA was rapidly absorbed; the median tmax was 0.5 hrs. Following Cmax, OCA concentration declined rapidly within 4 hours, consistent with the IV profile of OCA. Subsequent OCA concentrations remained, on average, less than 10% of Cmax up to 72 hours post-dose. A prolonged profile of OCA was observed over the course of 72 hours (FIG. 4). This low level persistence of parent OCA is most likely due to deconjugation of glyco-OCA and tauro-OCA by commensal bacteria in the ileum and colon, followed by reabsorption of OCA.
Mean (SD) plasma concentrations over time of total OCA (the sum of OCA, glyco-OCA, and tauro-OCA) are presented in FIG. 15 (Note: Total OCA calculated as sum of OCA, glyco-OCA, and tauro-OCA concentrations at each time point, glyco-OCA, and tauro-OCA concentrations at each time point expressed as mass equivalents of OCA). Consistent with the [^14C]-OCA results, the maximum exposure of total OCA occurred after a meal, consistent with gallbladder release and enterohepatic recirculation, leading to exposure levels being observed up to 72 hours post-dose. Based on overall exposure of total OCA (AUC0-t), glyco-OCA and tauro-OCA are the primary components of exposure, with minimal contribution (less than 10%) from the parent (OCA).
Absolute bioavailability was determined by the ratio of dose normalized AUC for oral dose/dose normalized AUC for IV dose. […] This relatively low value for bioavailability is consistent with the efficient uptake typical of bile acids into the liver, the primary site of action of OCA. PK results were as expected for a bile acid. OCA is rapidly absorbed in the intestine and taken up in the liver, where it is conjugated with glycine and taurine. Glyco-OCA and tauro-OCA were the primary components of exposure, with minimal contribution from the parent (OCA). Enterohepatic recirculation produced an extended profile, with maximum exposure occurring after meals.

[4] = target: T1, farnesoid X receptor (FXR) (Homo sapiens, UniProt Q96RI1); details: background statement; cited from earlier work
T1 sequence (Q96RI1 1-486): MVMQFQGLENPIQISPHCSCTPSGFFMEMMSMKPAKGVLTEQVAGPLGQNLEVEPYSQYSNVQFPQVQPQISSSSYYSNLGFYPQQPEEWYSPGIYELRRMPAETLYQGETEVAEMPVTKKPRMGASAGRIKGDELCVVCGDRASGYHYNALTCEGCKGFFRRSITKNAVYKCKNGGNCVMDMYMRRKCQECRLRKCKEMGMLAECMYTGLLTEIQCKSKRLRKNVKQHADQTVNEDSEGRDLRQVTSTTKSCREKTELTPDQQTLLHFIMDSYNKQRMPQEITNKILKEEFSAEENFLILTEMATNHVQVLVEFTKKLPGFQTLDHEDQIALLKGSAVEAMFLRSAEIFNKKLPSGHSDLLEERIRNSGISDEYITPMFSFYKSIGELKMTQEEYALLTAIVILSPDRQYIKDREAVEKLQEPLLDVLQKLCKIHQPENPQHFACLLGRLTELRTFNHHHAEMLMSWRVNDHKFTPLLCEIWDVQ

[5] = Clinical study Part 2: mass balance recovery of radioactivity in urine and feces after 25 mg oral [14C]-OCA; format: in vivo, human
Protocol: Part 2 also evaluated the extent of distribution of total radioactivity into blood cells, and identified metabolites accounting for more than 10% of circulating total radioactivity. The mean cumulative recovery (cumulative % Ae (Amount excreted)) of radioactivity in the urine and feces of subjects receiving oral [^14C]-OCA is shown in FIG. 18. […] The majority of drug-related material in the feces was recovered within 552 hours of dosing with investigational product. In Part 2 (Mass Balance), the mass balance data confirmed that the primary elimination route of OCA is through the feces. A mean of 87% of administered radioactivity was recovered from the feces over the entire collection period, and a minor percentage (<3%) was recovered from the urine.

[6] = rat; single oral administration of [14C] OCA
Text: Preclinical mass balance and radiolabeled single dose PK studies in the rat have examined biliary, urinary, and fecal excretion of OCA and its metabolites.

[7] = Clinical study Part 1, Regimen B: IV plasma PK of 100 μg microtracer dose of [14C]-OCA; format: in vivo, human
Protocol: The objectives of this study were to determine the absolute bioavailability of OCA, and evaluate the absorption, distribution, metabolism, and excretion of OCA in healthy male subjects. […] Mean plasma concentrations of total radioactivity are shown in FIG. 12, and of [^14C]-OCA in FIG. 13. The highest concentration of radioactivity in plasma was measured after completion of the IV dose, and the concentrations of OCA declined rapidly within 4 hours. After the initial decline, a low-level, prolonged profile of OCA and total radioactivity was observed, as expected due to enterohepatic recirculation.

[8] = 25 mg oral dose of [14C]-OCA, N = 8
[9] = 25 mg oral dose of [14C]-OCA, median and range, N = 8
[10] = plasma, single oral dose 25 mg OCA tablet, mean (SD), N = 5
[11] = plasma, single oral dose 25 mg OCA tablet, median and range, N = 5
[12] = by 504 hours postdose, single oral 25 mg [14C]-OCA
[13] = over the entire collection period
[14] = male, human, plasma [14C]-OCA, 15 minute IV infusion of 100 μg [14C]-OCA, mean (SD), N = 5

circulating OCA metabolites other than glyco-OCA and tauro-OCA [2]: identified
Structure (SMILES): CC[C@H]1[C@@H](O)C2C3CC[C@H]([C@H](C)CCC(=O)O)[C@@]3(C)CCC2[C@@]2(C)CC[C@@H](O[C@@H]3O[C@H](C(=O)O)[C@@H](O)[C@H](O)[C@H]3O)C[C@@H]12 (some centres unmarked) [OCA-3 glucuronide, OCA-3-O-Glucuronide]

circulating OCA metabolites other than glyco-OCA and tauro-OCA [2]: identified
Structure (SMILES): CC[C@H]1[C@@H](O)[C@H]2C3CC[C@H]([C@H](C)CCC(=O)O[C@@H]4O[C@H](C(=O)O)[C@@H](O)[C@H](O)[C@H]4O)[C@@]3(C)CC[C@@H]2[C@@]2(C)CC[C@@H](O)C[C@@H]12 (some centres unmarked) [OCA-24 glucuronide]

total radioactivity administered recovered from feces, mean ([5]; at 1152 hours): 87.0% | radioactivity recovered from feces, average [5, 12]: 72.3% | total radioactivity administered recovered from urine and feces, mean [5, 12]: 75.1% | administered radioactivity recovered from the feces, mean [5, 13]: 87% | administered radioactivity recovered from the urine [5, 13]: < 3% | total radioactivity recovered from the urine, average ([5]; single oral 25 mg [14C]-OCA): 2.83% | route of excretion of radioactivity [6]: excreted mainly in the feces | Vs (volume of distribution) ([7]; 15 minute IV infusion of 100 μg [14C]-OCA, mean (SD), N = 5): 618 (341.9) L | clearance ([7]; male, human, plasma, 15 minute IV infusion of 100 μg [14C]-OCA, mean (SD), N = 5, read-out: CL (total plasma clearance) (converted)): 417 mL/min | Vd ([7]; male, human, plasma, 15 minute IV infusion of 100 μg [14C]-OCA, mean (SD), N = 5, read-out: Vss (volume of distribution at steady state)): 210 L | AUC0-t [7, 14]: 3.86 ng·h/mL | Cmax [7, 14]: 9.71 ng/mL | AUC0-t of [14C]-OCA as share of the total radioactive exposure ([7]; over 72 hours, IV 100 μg [14C]-OCA): approximately 20%
Structure (SMILES): CC[C@H]1[C@@H](O)C2C3CC[C@H]([C@H](C)CCC(=O)O)[C@@]3(C)CCC2[C@@]2(C)CC[C@@H](O)C[C@@H]12 (some centres unmarked) [[^14C]-OCA, [^14C]OCA]

The remaining lines, values behind:

Structure (SMILES): CC[C@H]1[C@@H](O)[C@@H]2[C@H](CC[C@]3(C)[C@@H]([C@H](C)CCC(=O)NCC(=O)O)CC[C@@H]23)[C@@]2(C)CC[C@@H](O)C[C@@H]12 [Glyco-OCA]
pharmacological action compared with parent drug (OCA) [1]: equipotent | AUC0-t [2, 8]: 4690 (2232) ^ hours*ng/mL | Cmax [2, 8]: 73.8 (39.96) ng/mL | tmax [2, 9]: 10.0 (3.00, 36.0) h | AUC0-t [3, 10]: 1540 (480.7) hours*ng/mL | Cmax [3, 10]: 57.4 (24.43) ng/mL | tmax [3, 11]: 8.000 (2.00, 36.00) h

Structure (SMILES): CC[C@H]1[C@@H](O)[C@@H]2[C@H](CC[C@]3(C)[C@@H]([C@H](C)CCC(=O)O)CC[C@@H]23)[C@@]2(C)CC[C@@H](O)C[C@@H]12 [OCA, 3α,7α-dihydroxy-6α-ethyl-5β-cholan-24-oic acid]
FXR activity [4]: highly potent FXR modulator | tmax ([2]; male, human, 25 mg oral [14C]-OCA, read-out: median tmax): 75 min | AUC0-t ([2]; male, human, 25 mg oral dose of [14C]-OCA, N = 8, read-out: AUC0-t): 475 ng·h/mL | Cmax ([2]; male, human, 25 mg oral dose of [14C]-OCA, N = 8, read-out: Cmax): 63.7 ng/mL | tmax [2, 9]: 1.25 (0.750, 2.50) h | bioavailability ([3]; male, human, plasma, oral, 25 mg, ratio of dose normalized AUC oral 25 mg OCA / IV 100 μg [14C]-OCA, mean (SD), N = 5, read-out: F (absolute bioavailability)): ~17% | tmax ([3]; male, human, plasma, oral 25 mg OCA, read-out: median tmax): 30 min | AUC0-t ([3]; male, human, plasma, single oral dose 25 mg OCA tablet, mean (SD), N = 5, read-out: AUC0-t): 144 ng·h/mL | Cmax ([3]; male, human, plasma, single oral dose 25 mg OCA tablet, mean (SD), N = 5, read-out: Cmax): 80.9 ng/mL | subsequent OCA plasma concentrations relative to Cmax ([3]; on average, after the decline within 4 hours, up to 72 hours post-dose, oral 25 mg OCA): less than 10% | contribution of parent to overall exposure of total OCA (AUC0-t) ([3]; oral 25 mg OCA): less than 10% | tmax [3, 11]: 0.500 (0.50, 2.03) h

Structure (SMILES): CC[C@H]1[C@@H](O)[C@@H]2[C@H](CC[C@]3(C)[C@@H]([C@H](C)CCC(=O)NCCS(=O)(=O)O)CC[C@@H]23)[C@@]2(C)CC[C@@H](O)C[C@@H]12 [Tauro-OCA]
pharmacological action compared with parent drug (OCA) [1]: equipotent | AUC0-t [2, 8]: 2550 (2155) ^ hours*ng/mL | Cmax [2, 8]: 24.4 (14.21) ng/mL | tmax [2, 9]: 9.03 (2.50, 36.0) h | AUC0-t [3, 10]: 624 (159.6) hours*ng/mL | Cmax [3, 10]: 23.1 (7.412) ^ ng/mL | tmax [3, 11]: 36.000 (2.00, 60.00) h
